# Results as given in US10251897B2, “GLUT4 endocytosis inhibitor” (NISHIZAKI BIOINFORMATION RESEARCH INSTITUTE, priority 2014, dated 2019).
# Assays:
# GLUT4 [1] = test: GLUT4 mobilization monitoring (cellular membrane distribution of GLUT4, Western blotting with anti-c-myc antibody); assay type: cell-based
# Procedure: FIG. 1 is a graph showing that DOPE has an action to increase cellular membrane distribution of GLUT4 in differentiated 3T3L1-GLUT4myc adipocytes. The cells were not treated with (Control), or treated with 1 μM of various phospholipid derivatives and, after 20 min, lysed, and separated into the cytoplasm (C) fraction and cellular membrane (M) fraction, after which Western blotting was performed using an anti-c-myc antibody. […] P value, ANOVA (Bonferroni adjustment). NS; not significant. DOPE; 1,2-dioleoyl-sn-glycero-3-phosphoethanolamine, DAPE; 1,2-diarachidonoyl-sn-glycero-3-phosphoethanolamine, DPPE; 1,2-dipalmitoleoyl-sn-glycero-3-phosphoethanolamine, DLPE; 1,2-dilinoleoyl-sn-glycero-3-phosphoethanolamine.
# (§1) 3T3L1-GLUT4myc fibroblast strain expressing GLUT4myc was used. The cells are constructed by inserting human c-MYC epitope (14 amino acids) into the first ectodomain. […]
# The protein concentration of each fraction was measured using BCA protein assay kit (Thermo Fisher Scientific, Waltham, Mass., USA). […] The immunoreactivity was detected using ECL kit (Invitrogen), and visualized using a chemical luminescence detection system (chemiluminescence detection system; GE Healthcare, Piscataway, N.J., USA). The signal density was measured using an image analysis software (Image Gauge software; GE Healthcare).
# GLUT4 [2] = test: GLUT4 internal transfer (uptake) assay after insulin pre-treatment; assay type: cell-based; conditions: insulin 100 nM 30 min then washed
# Procedure: FIG. 2 is a graph showing that the GLUT4 cellular membrane distribution increasing action of DOPE derives from the suppression of GLUT4 endocytosis. 3T3L1-GLUT4myc adipocytes were treated with insulin (100 nM) for 30 min (−30-0 min), then washed to remove insulin (0 min), and DOPE (10 mM) was added to an extracellular solution. After incubation for 120 min, the cells were lysed, and separated into the cytoplasm (C) fraction and cellular membrane (M) fraction, after which Western blotting was performed using an anti-c-myc antibody. […] P value, ANOVA (Bonferroni adjustment). NS; not significant.
# as §1
# The protein concentration of each fraction was measured using BCA protein assay kit (Thermo Fisher Scientific, Waltham, Mass., USA). […] The immunoreactivity was detected using ECL kit (Invitrogen), and visualized using a chemical luminescence detection system (chemiluminescence detection system; GE Healthcare, Piscataway, N.J., USA). The signal density was measured using an image analysis software (Image Gauge software; GE Healthcare). […]
# PKC isozymes = test: Cell free PKC assay, PKC isozymes; assay type: biochemical; conditions: DOPE 100 μM, absence of TPA
# Procedure: (§2) PKC activity was monitored in a cell-free system. (A) Given PKC isozyme was evaluated in the absence or presence of DOPE (100 μM). […] P value, compared to each PKC isozyme activation in the absence of DOPE, Dunnett's test. (B) The activity of PKCα was evaluated in the absence (control) or presence of DOPE (100 μM), in the absence or presence of TPA (1 μM). […] P value, Dunnett's test. TPA; 12-O-tetradecanoylphorbol-[…].
# (§3) PKC activity in a cell-free system was quantified by the methods described in previous reports (Kanno T et al. J Lipid Res 2006; 47:1146-1156). In short, synthesized PKC substrate peptide (10 μM) was reacted with various PKC isozymes in a medium containing 20 mM Tris-HCl (pH 7.5), 5 mM magnesium acetate, 10 μM ATP, in the presence or absence of DOPE (100 μm), in the presence or absence of 1 μM TPA (12-O-tetradecanoylphorbol-13-acetate) at 30° C. for 5 min. […] They were applied on reversed-phase HPLC (LC-10ATvp, Shimadzu Co., Kyoto, Japan), and the peak of substrate peptide and the peak of a new resultant product were measured by the absorbance at 214 nm. The areas of unphosphorylated PKC substrate peptide and phosphorylated PKC substrate peptide were measured (total area corresponds to the concentration of PKC substrate peptide used in this Example), and the amount of the phosphorylated substrate peptide was calculated. […]
# PKCα = PKCα (Homo sapiens, UniProt P17252); test: Cell free PKC assay, PKCα activated by TPA; assay type: biochemical; conditions: DOPE 100 μM, TPA 1 μM
# Procedure: as §2, §3
# Glucose tolerance test = assay type: in vivo, C57BL/KsJ-lepr^db/lepr^db mouse; conditions: type 2 diabetes model mouse, DOPE 0.1, 1, 10 mg/kg oral 30 min before glucose 2 g/kg; 30, 60, 90 min
# Procedure: FIG. 6 is a graph showing that DOPE decreases the serum glucose level in C57BL/KsJ-lepr^db/lepr^db mouse. The mouse was placed in glucose starvation for 12 hr, glucose (2 g/kg) was orally administered, the blood was recovered at a given time and serum glucose assay was performed. DOPE was orally administered at a given concentration (0-10 mg/kg) 30 min before administration of glucose. […] P value, Fisher's PLSD (Protected Least Significant Difference test).
# C57BL/KsJ-lepr^db/lepr^db mouse (female, 8-week-old) (CLEA Japan; Tokyo, Japan) was used. Glucose tolerance test was performed using the mouse starved for 12 hr. Glucose (2 g/ml/kg body weight) was administered by gavage, and the time point thereof was taken as 0 h. DOPE (0, 0.1, 1, 10 mg/kg) was orally administered 30 min before administration of glucose. Brine was used for DOPE (0 mg/kg). The blood (10 μl) was collected from the tail vein at the time points of 30, 60, and 90 min, and each plasma sample which was labeled with 4-aminobenzyl ethyl ester (ABEE) and prepared from the obtained blood was loaded on high performance liquid chromatography (HPLC) system (LC-10ATvp; Shimadzu Co., Kyoto, Japan). The glucose concentration was calculated from a peak area/concentration analytical curve prepared using the standard glucose solution.
molecule,measurement,setting,value
"PKCα siRNA: siRNA for PKCα, SEQ ID NO: 1 and 2, purchased from Ambion (chain 1 GAACGUGCAUGAGGUGAAATT; chain 2 UUUCACCUCAUGCACGUUCTT; chemistry not given here) [reference compound]",GLUT4 distribution on the cellular membrane,"GLUT4 [1]; 3T3L1-GLUT4myc adipocytes 48 hr after siRNA transfection, vs NC siRNA",significantly increased
same,decrease of GLUT4 on the cellular membrane by endocytosis after insulin stimulation,"GLUT4 [2]; siRNA-transfected 3T3L1-GLUT4myc adipocytes, 120 min",the decrease was suppressed
"CCCCCCCC/C=C\CCCCCCCC(=O)OC[C@H](COP(=O)(O)OCCN)OC(=O)CCCCCCC/C=C\CCCCCCCC [DOPE, 1,2-Dioleoyl-sn-glycerol-3-phosphoethanolamine]",distribution of GLUT4 in cellular membrane (c-myc signal in cellular membrane fraction / total cells),"GLUT4 [1]; differentiated 3T3L1-GLUT4myc adipocytes, 1 μM phospholipid derivative, 20 min, vs Control",significantly increased
same,endocytosis of GLUT4 transported onto the cellular membrane by insulin stimulation,GLUT4 [2]; 3T3L1-GLUT4myc adipocytes,suppressed
same,"PKC activation (PKC isozyme activity, pmol/min)",PKC isozymes,not involved in PKC activation
same,PKCα activity activated by TPA,PKCα,suppress PKCα activated by TPA
same,blood glucose level,Glucose tolerance test,decrease blood glucose level of type 2 diabetes model mouse in a dose dependent manner
